Measurements: US8093386B2, “Thioaryl substituted inhibitors of zinc proteases and their use” (Bracco Imaging S.p.A, priority 2006, dated 2012)

Columns and labels:
Assay type in all cases: biochemical
MMP-1 = target: T1, MMP-1 (Homo sapiens, UniProt P03956); assay: In vitro fluorometric inhibition assay of MMPs: MMP-1; conditions: Table I, cells without (*)
T1 construct: purchased Calbiochem
T1 sequence (P03956 100-469): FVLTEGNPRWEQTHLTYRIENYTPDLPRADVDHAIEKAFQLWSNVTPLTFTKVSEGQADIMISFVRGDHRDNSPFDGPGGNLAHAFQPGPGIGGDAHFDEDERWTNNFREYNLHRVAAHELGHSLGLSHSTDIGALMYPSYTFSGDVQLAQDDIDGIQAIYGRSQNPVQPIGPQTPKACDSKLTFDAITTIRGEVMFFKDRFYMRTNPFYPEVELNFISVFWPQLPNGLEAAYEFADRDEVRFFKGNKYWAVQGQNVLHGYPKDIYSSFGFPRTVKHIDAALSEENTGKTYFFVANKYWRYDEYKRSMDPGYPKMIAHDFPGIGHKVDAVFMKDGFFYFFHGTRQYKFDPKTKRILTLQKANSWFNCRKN
Experimental: (§1) Analysis of the In Vitro Inhibition Activity of Zinc Metalloproteinases: In Vitro Inhibition of MMMPs
(§2) The human recombinant Progelatinase A (pro-MMP-2), B (pro-MMP-9), MMP-14cd and MMP-16cd, were provided by Prof. Gillian Murphy (Oncology Department, Cambridge University, UK); pro-MMP-1, pro-MMP-3, pro-MMP-7, pro-MMP-8, pro-MMP-13 and pro-MMP-14 were bought from Calbiochem. The proenzymes were activated immediately before the use with p-aminophenylmercuric acetate (APMA 2 mM for 1 h at 37° C. for MMP-1, MMP-2 and MMP-8, 1 mM for 1 h at 37° C. for MMP-9 and MMP-7, 1 mM for 30 min at 37° C. for MMP-13). Pro-MMP-14 and pro-MMP-3 were activated with trypsin 5 μg/ml for 15 min at 37° C. followed the soybean trypsin inhibitor (SBTI) 23 μg/ml for pro-MMP-14 and 62 μg/ml for pro-MMP-3. The catalytic domains of MMP-14 and MMP-16 were utilized without activation.
(§3) For the assay measurements, the stock solutions of the inhibitor (DMSO, 100 mM) were further diluted up to 7 different concentrations (0.01 nM-300 μM) for each MMP, in the buffer for the fluorometric assay (FAB: Tris 50 mM, pH=7.5, NaCl 150 mM, CaCl2 10 mM, Brij 35 0.05% and DMSO 1%). The solutions of activated enzyme (final concentrations 2.9 nM for MMP-2, 2.7 nM for MMP-9, 2.4 nM for MMP-7, 1 nM for MMP-14 and MMP-3, 1.5 nM for MMP-8 and MMP-16cd, 0.84 nM for MMP-14cd, 0.66 nM for MMP-13 and 0.20 nM for MMP-1) and of inhibitor were incubated in the assay buffer for 4 h at 25° C. After the addition of solution of fluorogenic substrate 200 μM Mca-Arg-Pro-Lys-Pro-Val-Glu-Nva-Trp-Arg-Lys(Dnp)-NH2 (Sigma) for MMP-3 and Mca-Lys-Pro-Leu-Gly-Leu-Dpa-Ala-Arg-NH2 (Bachem) for all the other enzymes in DMSO (final concentration 2 μM), the hydrolysis were monitored every 15 sec for 20 min, recording the increase in fluorescence (λex=325 nm, λem=400 nm) with a Molecular Device SpectraMax Gemini XS plates reader. The assays were made in triplicate in a total volume of 200 μl per well on 96 well-plates for microtitolation (Corning, black, NBS). The control wells were without inhibitor.
(§4) The inhibition activity of MMP was expressed in relative fluorescence unit (RFU). The percentage of inhibition was calculated using control reactions without inhibitor.
(§5) IC50 was determined using the formula: Vi/Vo=1/(1+[I]/IC50), wherein Vi is the initial rate of the substrate scission in presence of the inhibitor at the concentration [I] and Vo is the initial rate in the absence of inhibitor. The results were analyzed with the SoftMax Pro software and the GraFit software.

MMP-2 = target: T2, MMP-2 (Homo sapiens, UniProt P08253); assay: In vitro fluorometric inhibition assay of MMPs: MMP-2
T2 construct: gift of Prof; Gillian Murphy (Oncology Department, Cambridge University, UK)
T2 sequence (P08253 110-660): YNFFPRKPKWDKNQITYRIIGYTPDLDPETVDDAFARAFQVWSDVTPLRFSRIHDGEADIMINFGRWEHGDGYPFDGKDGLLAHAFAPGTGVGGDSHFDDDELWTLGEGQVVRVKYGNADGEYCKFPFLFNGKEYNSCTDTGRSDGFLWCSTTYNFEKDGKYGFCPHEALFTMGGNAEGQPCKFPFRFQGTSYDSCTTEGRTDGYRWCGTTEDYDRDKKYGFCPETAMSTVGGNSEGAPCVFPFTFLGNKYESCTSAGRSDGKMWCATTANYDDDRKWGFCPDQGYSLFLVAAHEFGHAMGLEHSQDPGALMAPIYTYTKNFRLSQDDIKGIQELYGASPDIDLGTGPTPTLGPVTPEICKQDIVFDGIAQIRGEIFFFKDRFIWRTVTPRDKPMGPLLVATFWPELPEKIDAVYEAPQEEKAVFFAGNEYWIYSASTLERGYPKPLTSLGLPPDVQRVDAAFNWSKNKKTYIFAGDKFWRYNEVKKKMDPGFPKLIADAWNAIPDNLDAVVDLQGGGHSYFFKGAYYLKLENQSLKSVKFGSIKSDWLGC
Experimental: as §1, §2, §3, §4, §5

MMP-9 = target: T3, MMP-9 (Homo sapiens, UniProt P14780); assay: In vitro fluorometric inhibition assay of MMPs: MMP-9
T3 construct: gift of Prof; Gillian Murphy (Oncology Department, Cambridge University, UK)
Experimental: as §1
as §2, with “The proenzymes were activated immediately before the use with p-aminophenylmercuric acetate (APMA 2 mM for 1 h at 37° C. for MMP-1, MMP-2 and MMP-8, 1 mM for 1 h at 37° C. for MMP-9 and MMP-7, 1 mM for 30 min at 37° C. for MMP-13).” left out
as §3, with “The solutions of activated enzyme (final concentrations 2.9 nM for MMP-2, 2.7 nM for MMP-9, 2.4 nM for MMP-7, 1 nM for MMP-14 and MMP-3, 1.5 nM for MMP-8 and MMP-16cd, 0.84 nM for MMP-14cd, 0.66 nM for MMP-13 and 0.20 nM for MMP-1) and of inhibitor were incubated in the assay buffer for 4 h at 25° C.” left out
as §4, §5

MMP-14 = target: T4, MMP-14 (Homo sapiens, UniProt P50281); assay: In vitro fluorometric inhibition assay of MMPs: MMP-14
T4 construct: purchased Calbiochem
Experimental: as §1, §2, §3, §4, §5

T3 sequence (P14780 107-707 limits assumed): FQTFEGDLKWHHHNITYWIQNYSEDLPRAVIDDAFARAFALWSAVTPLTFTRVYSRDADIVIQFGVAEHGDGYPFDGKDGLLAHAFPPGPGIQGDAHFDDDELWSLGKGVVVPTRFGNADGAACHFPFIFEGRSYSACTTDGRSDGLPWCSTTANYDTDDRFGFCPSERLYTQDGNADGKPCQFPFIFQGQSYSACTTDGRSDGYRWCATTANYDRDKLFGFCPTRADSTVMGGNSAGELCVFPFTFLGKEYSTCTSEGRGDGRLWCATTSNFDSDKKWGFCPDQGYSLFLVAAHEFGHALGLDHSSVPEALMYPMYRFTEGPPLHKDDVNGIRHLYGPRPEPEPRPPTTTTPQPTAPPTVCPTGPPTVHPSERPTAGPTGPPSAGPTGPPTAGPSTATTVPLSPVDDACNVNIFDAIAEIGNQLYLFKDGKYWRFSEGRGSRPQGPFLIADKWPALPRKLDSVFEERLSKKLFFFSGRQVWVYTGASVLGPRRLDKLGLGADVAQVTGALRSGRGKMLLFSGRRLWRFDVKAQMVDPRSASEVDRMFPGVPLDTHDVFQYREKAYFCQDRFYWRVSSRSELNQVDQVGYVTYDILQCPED

O=C(O)Cc1ccccc1Sc1ccc(-c2ccccc2)cc1 showed an IC50 (MMP-1) of 334 ± 5.7 µM, an IC50 (MMP-2; Table I, cells without (*)) of 0.33 ± 0.026 µM and an IC50 (MMP-9; Table I, cells without (*)) of 6.7 ± 0.3 µM.
O=C(O)CC(C(=O)O)c1ccccc1Sc1ccc(-c2ccccc2)cc1 (stereo not drawn) gave an IC50 (MMP-1) of 189 ± 28 µM, an IC50 (MMP-2; Table I, cells without (*)) of 11 ± 1.1 µM and an IC50 (MMP-9; Table I, cells without (*)) of 95 ± 8.7 µM.
For O=C1CC(c2ccccc2Sc2ccc(-c3ccccc3)cc2)C(=O)N1O (stereo not drawn), the IC50 (MMP-1) was 83 ± 11 µM, the IC50 (MMP-2; Table I, cells without (*)) was 12 ± 0.8 µM and the IC50 (MMP-9; Table I, cells without (*)) was 35 ± 2.7 µM.
O=C1CC(c2ccccc2S(=O)(=O)c2ccc(-c3ccccc3)cc2)C(=O)N1O (stereo not drawn) was tested, and the IC50 (MMP-1) was 186 ± 8 µM, the IC50 (MMP-2; Table I, cells without (*)) was 7 ± 0.5 µM and the IC50 (MMP-9; Table I, cells without (*)) was 47 ± 2.7 µM.
O=C(O)CCC(C(=O)O)c1ccccc1Sc1ccc(-c2ccccc2)cc1 (stereo not drawn) gave an IC50 (MMP-1) of 190 ± 10 µM, an IC50 (MMP-2; Table I, cells without (*)) of 1.8 ± 0.16 µM and an IC50 (MMP-9; Table I, cells without (*)) of 17 ± 0.96 µM.
With COc1ccc(Oc2ccc(Sc3ccccc3C(=O)NS(C)(=O)=O)cc2)cc1 [Compound 8, 2-(4-(4-methoxyphenoxy)phenylthio)-N-(methylsulphonyl)benzamide] the IC50 (MMP-2; Table III, cells marked (*)) was 12.2 ± 1.6 µM, the IC50 (MMP-9; Table III, cells marked (*)) was 17.8 ± 1.3 µM and the IC50 (MMP-14; Table III, cells marked (*)) was 79 ± 6 µM.
With COc1ccc(Oc2ccc(Sc3ccccc3CC(=O)O)cc2)cc1 [Compound 11, 2-(2-(4-(4-methoxyphenoxy)phenylthio)phenyl)acetic acid] the IC50 (MMP-2; Table III, cells without (*)) was 20 ± 8 µM, the IC50 (MMP-9; Table III, cells without (*)) was 48.7 ± 8.6 µM and the IC50 (MMP-14; Table III, cells without (*)) was 297 ± 64 µM.
With COc1ccc(Oc2ccc(Sc3ccccc3CC(=O)NO)cc2)cc1 [Compound 13] the IC50 (MMP-2; Table III, cells without (*)) was 0.568 ± 0.031 µM and the IC50 (MMP-9; Table III, cells without (*)) was 0.105 ± 0.013 µM.
COc1ccc(-c2ccc(Sc3ccccc3CC(=O)O)cc2)cc1 [Compound 22, 2-(2-(4′-methoxybiphenyl-4-ylthio)phenyl)acetic acid] gave an IC50 (MMP-2; Table II, cells marked (*)) of 0.114 ± 0.005 µM and an IC50 (MMP-14; Table II, cells marked (*)) of 3.65 ± 0.2 µM.
For COc1ccc(-c2ccc(Sc3ccccc3CC(=O)NS(C)(=O)=O)cc2)cc1 [Compound 25, 2-(2-(4′-methoxybiphenyl-4-ylthio)phenyl)-N-(methylsulphonyl)acetamide], the IC50 (MMP-2; Table II, cells without (*)) was 5.34 ± 0.65 µM, the IC50 (MMP-9; Table II, cells without (*)) was 17.7 ± 1.4 µM and the IC50 (MMP-14; Table II, cells without (*)) was 127 ± 6.9 µM.
O=C(Cc1ccccc1Sc1ccc(-c2ccsc2)cc1)NO [Compound 30, N-hydroxy-2-(2-(4-(thiophene-3-yl)phenylthio)phenyl)acetamide] showed an IC50 (MMP-2; Table I, cells marked (*)) of 0.0379 ± 0.0022 µM and an IC50 (MMP-9; Table I, cells marked (*)) of 1.11 ± 0.136 µM.
